# Experimental data reported in US20110100079A1, “METHOD FOR IMPARTING STRESS TOLERANCE TO PLANT” (priority 2007, published 2011).
# What was measured:
# Type in all cases: in vivo
# tomato = experiment: Example 7 drying stress test (tomato), soil culture; conditions: 23° C., 100 ppm, 2 weeks; for Fresh weight, relative value (untreated plot = 100), Comparison 1: stress-free: tomato soil culture, EC 1, pF 1.7, two-leaf stage; for Fresh weight, relative value (untreated plot = 100), Test 1 / Fresh weight, relative value (untreated plot = 100), Test 4 / Fresh weight, relative value (untreated plot = 100), Test 2 / Fresh weight, relative value (untreated plot = 100), Test 3: tomato soil culture; for Fresh weight, relative value (untreated plot = 100), Test 1: EC 1, pF 2.8, two-leaf stage; for Fresh weight, relative value (untreated plot = 100), Test 4: EC 1, pF 3.5, five-leaf stage; for Fresh weight, relative value (untreated plot = 100), Test 2: EC 1, pF 3.5, two-leaf stage; for Fresh weight, relative value (untreated plot = 100), Test 3: EC 1, pF 4.1, two-leaf stage
# Method: The environmental conditions in a climatic chamber were controlled so as to have a temperature of 23° C., an illuminance by a fluorescent light of 5000 Lux, and a daily light-dark cycle of a 16-hour light period and an 8-hour dark period. Tomatoes as prepared above were transplanted in size-3 (9 cm) pots. During the test period, the pF value was controlled by adding a suitable amount of tap water once a day so as to attain a specific drying stress value. A treatment solution containing a compound of Table 1 in a specific concentration (the remainder was water) was prepared and sprayed onto the leaves or applied to the underground portions. […] A comparative example was constructed to reflect the drying stress-free optimum cultivation conditions to investigate the plant energizing ability. […] Moreover, when the products of the present invention and the comparative products were compared, the stress tolerance imparting ability of the products of the present invention was higher in respective drying stress conditions.
# “Momotaro” tomato [1] = experiment: Example 6 salt stress test (tomato), hydroponic culture; conditions: 23° C., 100 ppm, 2 weeks; for Fresh weight, relative value (untreated plot = 100), Test 5 / Fresh weight, relative value (untreated plot = 100), Test 8 / Fresh weight, relative value (untreated plot = 100), Test 6 / Fresh weight, relative value (untreated plot = 100), Test 7: hydroponic culture; for Fresh weight, relative value (untreated plot = 100), Test 5: EC 2.7 mS/cm; for Fresh weight, relative value (untreated plot = 100), Test 5 / Fresh weight, relative value (untreated plot = 100), Test 6 / Fresh weight, relative value (untreated plot = 100), Test 7 / Fresh weight, relative value (untreated plot = 100), Comparison 2: two-leaf stage; for Fresh weight, relative value (untreated plot = 100), Test 8 / Fresh weight, relative value (untreated plot = 100), Test 6: EC 3.9 mS/cm; for Fresh weight, relative value (untreated plot = 100), Test 8: five-leaf stage; for Fresh weight, relative value (untreated plot = 100), Test 7: EC 4.8 mS/cm; for Fresh weight, relative value (untreated plot = 100), Comparison 2: stress-free: hydroponic culture, EC 1.3 mS/cm
# Method: (§1) (a) Comparative example conditions (stress-free optimum growth conditions) Cultivation temperature: 23° C., EC: 1.3 mS/cm (Otsuka ½A formulation) (b) Example conditions (salt stress conditions) Cultivation temperature: 23° C., EC: 2.7, 3.9, 4.8 mS/cm (cultivation with Kureha gardening soil) (2) Illuminance: 5000 Lux (fluorescent light), light/dark cycle: 16 hours/8 hours (3) Employed soil: Kureha gardening soil manufactured by Kureha Corporation (fertilizer components: N:P:K=0.4:1.9:0.6 g/kg soil) (4) Employed solution culture medium: Otsuka ½A formulation: a mixed solution of Otsuka House No. 1 (N:P:K=10:8:27) 7.5 g/10 L and Otsuka House No. 2 (N:P:K:Ca=10:0:0:23) 5 g/10 L, total nitrogen: 130 ppm, phosphoric acid: 60 ppm, potassium: 203 ppm) (5) Cultivation period: 2 weeks (6) Plant preparation: A 50-cell tray was filled with Kureha gardening soil manufactured by Kureha Corporation (fertilizer components: N:P:K=0.4:1.9:0.6 g/kg soil), and seeds of a “Momotaro” tomato or tubers of a “Danshaku” potato were sowed, thinly covered with Kureha gardening soil, and sufficiently watered to allow the seeds or the tubers to sprout. When the leaves in the 2-leaf stage or the 5-leaf stage fully unfolded, the soil on the tomato roots or the potato roots was carefully washed away with running water, and a test was performed. (7) Test chemicals: POE (20) sorbitan monolauric acid ester: Reodol TW-L120 (Kao Corporation) POE (20) sorbitan monopalmitic acid ester: Reodol TW-P120 (Kao Corporation) POE (20) sorbitan monostearic acid ester: Reodol TW-S120 (Kao Corporation) POE (20) sorbitan monooleic acid ester: Reodol TW-O120 (Kao Corporation) Sorbitan monooleic acid ester: Emasol 0-10(F) (Kao Corporation) POE (6) sorbitan monooleic acid ester: Reodol TW-O106 (Kao Corporation) Alkyl (number of carbon atoms: 10) polyglucoside: AG-10LK (Kao Corporation) Alkyl (number of carbon atoms: 12 to 14) polyglucoside: AG-124 (Kao Corporation) Sucrose fatty acid ester (number of carbon atoms: C18, HLB: 5): S-570 (Mitsubishi-Kagaku Foods Corporation) Sucrose fatty acid ester (number of carbon atoms: C18, HLB: 9): S-970 (Mitsubishi-Kagaku Foods Corporation) Sucrose fatty acid ester (number of carbon atoms: C18, HLB: 11): S-1170 (Mitsubishi-Kagaku Foods Corporation) Sucrose fatty acid ester (number of carbon atoms: C18, HLB: 15): 5-1570 (Mitsubishi-Kagaku Foods Corporation) Sucrose fatty acid ester (number of carbon atoms: C16, HLB: 15): P-1570 (Mitsubishi-Kagaku Foods Corporation) Sucrose fatty acid ester (number of carbon atoms: C18:1, HLB: 15): O-1570 (Mitsubishi-Kagaku Foods Corporation) (8) Amount of treatment solution applied: 10 ml/specimen for leaf spraying, 250 ml/specimen for hydroponic culture (treatment of underground portion) (9) 50 ml/specimen for soil culture (treatment of underground portion)
# The environmental conditions in a climatic chamber were controlled so as to have a temperature of 23° C., an illuminance by a fluorescent light of 5000 Lux, and a daily light-dark cycle of a 16-hour light period and an 8-hour dark period. Tomatoes as prepared above were planted in 250 ml polyethylene bottles each filled with a solution culture medium having a different EC value. Different EC values were achieved by taking a ½ Otsuka A formulation having an EC value of 1.3 as a standard and suitably increasing the fertilizer concentration through proportional counting. A treatment solution containing a compound of Table 1 in a specific concentration (the remainder was water) was prepared and sprayed onto the leaves or applied to the underground portion. In each test plot, 10 specimens were prepared for replication, and the average of the fresh weight of each specimen 2 weeks after the beginning of the test was calculated and expressed as a relative value where “100” indicates a result identical to that of the untreated plot of a given EC condition. […]
# “Momotaro” tomato [2] = experiment: Example 6 salt stress test (tomato), soil culture; conditions: 23° C., 100 ppm, 2 weeks; for Fresh weight, relative value (untreated plot = 100), Test 1 / Fresh weight, relative value (untreated plot = 100), Test 4 / Fresh weight, relative value (untreated plot = 100), Test 2 / Fresh weight, relative value (untreated plot = 100), Test 3: soil culture; for Fresh weight, relative value (untreated plot = 100), Test 1: EC 1.3 mS/cm; for Fresh weight, relative value (untreated plot = 100), Test 1 / Fresh weight, relative value (untreated plot = 100), Test 2 / Fresh weight, relative value (untreated plot = 100), Test 3 / Fresh weight, relative value (untreated plot = 100), Comparison 1: pF 1.7, two-leaf stage; for Fresh weight, relative value (untreated plot = 100), Test 4 / Fresh weight, relative value (untreated plot = 100), Test 2: EC 2 mS/cm; for Fresh weight, relative value (untreated plot = 100), Test 4: pF 1.7, five-leaf stage; for Fresh weight, relative value (untreated plot = 100), Test 3: EC 3 mS/cm; for Fresh weight, relative value (untreated plot = 100), Comparison 1: stress-free: soil culture, EC 1 mS/cm
# Method: (1) A. soil culture (a) Comparative example conditions (stress-free optimum growth conditions) Cultivation temperature: 23° C., EC: 1.0 mS/cm (cultivation with Kureha gardening soil), pF value: 1.7 (capillaries in a saturated state) (b) Example conditions (salt stress conditions) Cultivation temperature: 23° C., EC: 1.3, 2.0, 3.0 mS/cm (cultivation with Kureha gardening soil), pF value: 1.7 (capillaries in a saturated state)
# as §1
# The environmental conditions in a climatic chamber were controlled so as to have a temperature of 23° C., an illuminance by a fluorescent light of 5000 Lux, and a daily light-dark cycle of a 16-hour light period and an 8-hour dark period. Tomatoes as prepared above were transplanted in size-3 (9 cm) pots. During the test period, the EC value was controlled by adding a suitable amount of a 10% NaCl solution once a day so as to attain a specific salt stress value. A treatment solution containing a compound of Table 1 in a specific concentration (the remainder was water) was prepared and sprayed onto the leaves or applied to the underground portions. […]
Compound,"Fresh weight, relative value (untreated plot = 100), Comparison 1 (tomato; underground portion)","Fresh weight, relative value (untreated plot = 100), Test 1 (tomato; underground portion)","Fresh weight, relative value (untreated plot = 100), Test 4 (tomato; underground portion)","Fresh weight, relative value (untreated plot = 100), Test 2 (tomato; underground portion)","Fresh weight, relative value (untreated plot = 100), Test 3 (tomato; underground portion)","Fresh weight, relative value (untreated plot = 100), Test 5 (“Momotaro” tomato [1]; underground portion)","Fresh weight, relative value (untreated plot = 100), Test 8 (“Momotaro” tomato [1]; underground portion)","Fresh weight, relative value (untreated plot = 100), Test 6 (“Momotaro” tomato [1]; underground portion)","Fresh weight, relative value (untreated plot = 100), Test 7 (“Momotaro” tomato [1]; underground portion)","Fresh weight, relative value (untreated plot = 100), Comparison 2 (“Momotaro” tomato [1]; underground portion)","Fresh weight, relative value (untreated plot = 100), Comparison 1 (tomato; leaf)","Fresh weight, relative value (untreated plot = 100), Test 1 (tomato; leaf)","Fresh weight, relative value (untreated plot = 100), Test 4 (tomato; leaf)","Fresh weight, relative value (untreated plot = 100), Test 2 (tomato; leaf)","Fresh weight, relative value (untreated plot = 100), Test 3 (tomato; leaf)","Fresh weight, relative value (untreated plot = 100), Test 5 (“Momotaro” tomato [1]; leaf)","Fresh weight, relative value (untreated plot = 100), Test 8 (“Momotaro” tomato [1]; leaf)","Fresh weight, relative value (untreated plot = 100), Test 6 (“Momotaro” tomato [1]; leaf)","Fresh weight, relative value (untreated plot = 100), Test 7 (“Momotaro” tomato [1]; leaf)","Fresh weight, relative value (untreated plot = 100), Comparison 2 (“Momotaro” tomato [1]; leaf)",other results
POE (20) sorbitan monooleic acid ester [Product of present invention 1],103,134,160,188,145,145,160,190,145,104,–,–,–,–,–,–,–,–,–,–,"Fresh weight, relative value (untreated plot = 100), Test 1 (“Momotaro” tomato [2]; underground portion): 142; Fresh weight, relative value (untreated plot = 100), Test 4 (“Momotaro” tomato [2]; underground portion): 156; Fresh weight, relative value (untreated plot = 100), Test 2 (“Momotaro” tomato [2]; underground portion): 185; Fresh weight, relative value (untreated plot = 100), Test 3 (“Momotaro” tomato [2]; underground portion): 140; Fresh weight, relative value (untreated plot = 100), Comparison 1 (“Momotaro” tomato [2]; underground portion): 103"
"O=C(O)[C@@H]1CCCN1 [Comparative product 2, Proline, reference compound]",102,102,100,103,101,103,100,103,102,103,101,102,101,102,101,102,101,102,102,102,"Fresh weight, relative value (untreated plot = 100), Test 1 (“Momotaro” tomato [2]; underground portion): 103; Fresh weight, relative value (untreated plot = 100), Test 4 (“Momotaro” tomato [2]; underground portion): 100; Fresh weight, relative value (untreated plot = 100), Test 3 (“Momotaro” tomato [2]; underground portion): 100"
"OC[C@H]1O[C@H](OC[C@H]2O[C@H](O[C@]3(CO)O[C@H](CO)[C@@H](O)[C@@H]3O)[C@H](O)[C@@H](O)[C@@H]2O)[C@H](O)[C@@H](O)[C@H]1O [Comparative product 4, Raffinose, reference compound]",–,–,–,–,–,–,–,–,–,–,102,103,101,103,103,103,102,103,103,102,–
Alkyl (C10) polyglycoside [Product of present invention 15],–,–,–,–,–,–,–,–,–,–,101,121,139,147,126,125,138,145,125,101,"Fresh weight, relative value (untreated plot = 100), Test 1 (“Momotaro” tomato [2]; leaf): 121; Fresh weight, relative value (untreated plot = 100), Test 4 (“Momotaro” tomato [2]; leaf): 134; Fresh weight, relative value (untreated plot = 100), Test 2 (“Momotaro” tomato [2]; leaf): 142; Fresh weight, relative value (untreated plot = 100), Test 3 (“Momotaro” tomato [2]; leaf): 121; Fresh weight, relative value (untreated plot = 100), Comparison 1 (“Momotaro” tomato [2]; leaf): 101"
